Assay results as given in patent US20250177566A1, “USE OF CHEMICAL EPIGENETIC MODIFIERS TO MODULATE GENE EXPRESSION” (The University of North Carolina at Chapel Hill, priority 2022, published 2025).

Key:
Assay type in all cases: cell-based, human
CXCR4 [1] = assay: CXCR4 mRNA activation in HCT116 stably expressing dCas9 and MS2-FKBP*x2, qRT-PCR; details: for fold change, CXCR4 mRNA (CEM Treated vs Non-Treated): 48 hrs; for fold change, CXCR4 mRNA (CXCR4 gRNA vs NT gRNA): FIG. 3B; for fold change, CXCR4 mRNA (CXCR4 gRNA vs NT gRNA) / fold change, CXCR4 mRNA (washout vs AP1867 competition) / fold change, CXCR4 mRNA (Compare to 0 h): CEM203 50 nM; for fold change, CXCR4 mRNA (washout vs AP1867 competition): FIG. 3C; for fold change, CXCR4 mRNA (Compare to 0 h): FIG. 7A
Experimental: To further explore the activation potential of the SLF*-CEMa, their ability to target endogenous genes was evaluated (FIGS. 2A and 2B). Lentivirus was used to establish a stable HCT116 cell line expressing dCas9 and MS2-FKBP*x2 constructs, selecting for cells with antibiotic resistance. […] All CEMs were screened for their ability to activate the CXCR4 gene at 5 nM (FIG. 2C). RNA extraction and quantitative RT-PCR (qRT-PCR) were performed after 48 hours of CEM treatment.
To determine the optimal treatment concentration of the SLF*-CEMa molecules in this context, HCT116 cells were treated with 1 nM, 5 nM, 25 nM, and 50 nM of CEM203, CEM207, or CEM87. […] After 48 hours, RNA extraction followed by qRT-PCR was performed to evaluate the change in mRNA expression of CXCR4 (FIG. 2D). […] To directly compare this induced activation to other CRISPR-Cas9-based epigenetic activators, dCas9-VPR and dCas9-p300 constructs were virally infected into HCT116 cells and CXCR4 activation assessed in a similar fashion (FIGS. 2A and 2B).
To determine the time at which SLF*-CEMa most effectively induces gene activation, CXCR4 gene expression changes over time were investigated in dCas9 and MS2-FKBP*x2 stably infected HCT116 cells. Cells were treated with either vehicle, […] (FIG. 3A). RNA extraction and qRT-PCR were performed at 12, 24, 48, 72, and 96 hrs time points (FIG. 3B).
To investigate if endogenous gene activation triggered by the SLF*-CEMa compounds is also reversible, HCT116 cells were treated with CEM203 (50 nM) or CEM207 (25 nM) for 24 hours after transfecting CXCR4 gRNA, and then the CEMs were removed by media exchange at various time points. […] Likewise, it was investigated whether treatment with excess AP1867 could further reverse gene activation, potentially in a more robust fashion than with washout alone if there is any remaining intracellular SLF*-CEMa. To test this, after 24 hours of SLF*-CEMa treatment, a media exchange containing 20 μM AP1867 was performed (FIGS. 3C and 3D).
RNA extraction and qRT-PCR. All RNA extraction experiments were conducted in 12-well plate format. Culturing medium was removed, and cells were washed with 1×PBS, following with 0.05% trypsin to disassociate. After being quenched by medium and centrifuged, cells were washed with 1×PBS, and the RNA extraction was performed by using RNeasy Plus Mini kit (Qiagen, 74134). RT-qPCR was conducted by using RNA-to CT 1-step kit (Thermo Fisher Scientific, 4389986). The primer sets used in quantifying each gene can be found in Table 4.

TRE3G-GFP reporter gene = TRE3G-GFP reporter gene activation in HCT116, dCas9 + MS2-FKBP*x2 (F36V) system, flow cytometry; design: fold change, GFP: reference not given here; details: FIG. 5A, 10 nM, 48 hrs
CXCR4 [2] = assay: CXCR4 mRNA activation in HCT116 stably expressing dCas9 and MS2-FKBPx2 (WT-FKBP), qRT-PCR; details: FIG. 6, WT FKBP system, 48 hrs

CC[C@H](C(=O)N1CCCC[C@H]1C(=O)O[C@H](CCc1ccc(OC)c(OC)c1)c1cccc(OCC(=O)NCCOCCOCCOCCOCCNC(=O)C[C@@H]2N=C(c3ccc(Cl)cc3)c3cc(OC)ccc3-n3c(C)nnc32)c1)c1cc(OC)c(OC)c(OC)c1 [CEM203, (1R)-1-(3-((20-((4S)-6-(4-Chlorophenyl)-8-methoxy-1-methyl-4H-benzo[f][1,2,4]triazolo[4,3-a][1,4]diazepin-4-yl)-2,19-dioxo-6,9,12,15-tetraoxa-3,18-diazaicosyl)oxy)phenyl)-3-(3,4-dimethoxyphenyl) propyl (2S)-1-((S)-2-(3,4,5-trimethoxyphenyl)butanoyl) piperidine-2-carboxylate]
fold change, CXCR4 mRNA (CEM Treated vs Non-Treated) (CXCR4 [1]; FIG. 2D, CXCR4 gRNA, 1 nM): 2.3 fold | fold change, CXCR4 mRNA (CEM Treated vs Non-Treated) (CXCR4 [1]; FIG. 2D, CXCR4 gRNA, 5 nM): 13.0 fold | fold change, CXCR4 mRNA (CEM Treated vs Non-Treated) (CXCR4 [1]; FIG. 2D, CXCR4 gRNA, 25 nM): 35.9 fold | fold change, CXCR4 mRNA (CEM Treated vs Non-Treated) (CXCR4 [1]; FIG. 2D, CXCR4 gRNA, 50 nM): 54.0 fold | fold change, CXCR4 mRNA (CEM Treated vs Non-Treated) (CXCR4 [1]; FIG. 2D, NT gRNA, 1 nM): 0.98 fold | fold change, CXCR4 mRNA (CEM Treated vs Non-Treated) (CXCR4 [1]; FIG. 2D, NT gRNA, 5 nM): 1.30 fold | fold change, CXCR4 mRNA (CEM Treated vs Non-Treated) (CXCR4 [1]; FIG. 2D, NT gRNA, 25 nM): 2.42 fold | fold change, CXCR4 mRNA (CEM Treated vs Non-Treated) (CXCR4 [1]; FIG. 2D, NT gRNA, 50 nM): 2.57 fold | CXCR4 activation compared to dCas9-p300 (CXCR4 [1]; FIG. 2D, concentrations above 5 nM): higher CXCR4 activation | fold change, CXCR4 mRNA (CXCR4 gRNA vs NT gRNA) (CXCR4 [1]; 24 h): 17.9 fold | fold change, CXCR4 mRNA (CXCR4 gRNA vs NT gRNA) (CXCR4 [1]; 48 h): 19.8 fold | fold change, CXCR4 mRNA (CXCR4 gRNA vs NT gRNA) (CXCR4 [1]; 48 h AP1867 (washout with 20 μM AP1867 after 24 hrs)): 3.6 fold | fold change, CXCR4 mRNA (CXCR4 gRNA vs NT gRNA) (CXCR4 [1]; 48 h wash (media washout after 24 hrs)): 7.7 fold | fold change, CXCR4 mRNA (CXCR4 gRNA vs NT gRNA) (CXCR4 [1]; 72 h): 13.1 fold | fold change, CXCR4 mRNA (CXCR4 gRNA vs NT gRNA) (CXCR4 [1]; 72 h AP1867 (washout with 20 μM AP1867 after 24 hrs)): 1.9 fold | fold change, CXCR4 mRNA (CXCR4 gRNA vs NT gRNA) (CXCR4 [1]; 72 h wash (media washout after 24 hrs)): 5.6 fold | fold change, CXCR4 mRNA (CXCR4 gRNA vs NT gRNA) (CXCR4 [1]; 96 h AP1867 (washout with 20 μM AP1867 after 24 hrs)): 1.2 fold | fold change, CXCR4 mRNA (CXCR4 gRNA vs NT gRNA) (CXCR4 [1]; 96 h wash (media washout after 24 hrs)): 3.3 fold | fold change, CXCR4 mRNA (washout vs AP1867 competition) (CXCR4 [1]; 48 h): 1.5 fold | fold change, CXCR4 mRNA (washout vs AP1867 competition) (CXCR4 [1]; 72 h): 4.2 fold | fold change, CXCR4 mRNA (washout vs AP1867 competition) (CXCR4 [1]; 96 h): 1.7 fold | fold change, CXCR4 mRNA (Compare to 0 h) (CXCR4 [1]; NT gRNA, 12 h): 4.9 fold | fold change, CXCR4 mRNA (Compare to 0 h) (CXCR4 [1]; NT gRNA, 24 h): 2.2 fold | fold change, CXCR4 mRNA (Compare to 0 h) (CXCR4 [1]; NT gRNA, 48 h): 1.1 fold | fold change, CXCR4 mRNA (Compare to 0 h) (CXCR4 [1]; NT gRNA, 48 h AP1867 (washout with 20 μM AP1867 after 24 hrs)): 0.8 fold | fold change, CXCR4 mRNA (Compare to 0 h) (CXCR4 [1]; NT gRNA, 48 h wash (media washout after 24 hrs)): 0.7 fold | fold change, CXCR4 mRNA (Compare to 0 h) (CXCR4 [1]; NT gRNA, 72 h): 1.0 fold | fold change, CXCR4 mRNA (Compare to 0 h) (CXCR4 [1]; NT gRNA, 72 h AP1867 (washout with 20 μM AP1867 after 24 hrs)): 0.6 fold | fold change, CXCR4 mRNA (Compare to 0 h) (CXCR4 [1]; NT gRNA, 72 h wash (media washout after 24 hrs)): 0.8 fold | fold change, CXCR4 mRNA (Compare to 0 h) (CXCR4 [1]; NT gRNA, 96 h): 1.3 fold | fold change, CXCR4 mRNA (Compare to 0 h) (CXCR4 [1]; NT gRNA, 96 h AP1867 (washout with 20 μM AP1867 after 24 hrs)): 0.5 fold | fold change, CXCR4 mRNA (Compare to 0 h) (CXCR4 [1]; NT gRNA, 96 h wash (media washout after 24 hrs)): 0.7 fold | CXCR4 mRNA expression after CEM washout in comparison to cells continuously treated (CXCR4 [1]; FIGS. 3C and 3D, CEM203 50 nM or CEM207 25 nM for 24 hours, then media exchange, all time points): significantly lowered CXCR4 mRNA expression | time point of highest (peak) CXCR4 mRNA activation (CXCR4 [1]; time course 12, 24, 48, 72, 96 hrs, CXCR4 gRNA): 24 h | fold change, GFP (TRE3G-GFP reporter gene; NT gRNA): 0.7 fold | fold change, GFP (TRE3G-GFP reporter gene; TRE3G gRNA): 9.4 fold | fold change, CXCR4 mRNA (CXCR4 gRNA vs NT gRNA) (CXCR4 [2]; 25 nM): 1.5 fold | fold change, CXCR4 mRNA (CXCR4 gRNA vs NT gRNA) (CXCR4 [2]; 200 nM): 3.5 fold
